# Results published in PMC10054477, “Design, Synthesis, and Biological Evaluation of Sulfonamide Methoxypyridine Derivatives as Novel PI3K/mTOR Dual Inhibitors” (Pharmaceuticals, 2023).
# Tests used:
# HCT-116 cells [1] = test: CCK-8 cell viability assay, HCT-116; type: cell-based; settings: Homo sapiens, mean (n = 3)
# Description: (§1) MCF-7 and HCT-116 cells were purchased from the Meilunbio Biotechnology Co., Ltd. (Dalian, China). Cells were cultured at 37 °C with 5% CO2, using DMEM or RPMI 1640 medium (Meilunbio, Dalian, China) with 10% (v/v) fetal bovine serum (Gibco, San Diego, CA, USA) and 1% (v/v) penicillin and streptomycin (Meilunbio, Dalian, China). CCK-8 assay was used to determine the inhibitory effect in vitro. In short, cells were incubated into 96-well plates at the rate of 5000 cells per well. After 24 h of incubation, 100 μL medium was added, which contained a specific concentration of the test compound. After 72 h, 10 μL CCK-8 regent was added and the plate was incubated at 37 °C, 5% CO2 for 1 h. The optical density of each hole at 450 nm was read by a BioTek TS-800 microplate reader. GraphPad Prism 9.3.1 software was used to calculate the IC50 value.
# mTOR = target: T1, mTOR (Homo sapiens, UniProt P42345); test: LANCE Ultra assay, mTOR inhibition; type: biochemical; settings: mean (n = 2)
# T1 construct: purchased Millipore 14-770
# Description: The inhibitory activity of 22c on mTOR was determined by LANCE Ultra assay. In short, to a solution of kinase buffer, compound solution, ULight-4E-BP1 (Thr37/46) peptide substrate (PE, Catalog No. TRF0128-M), ATP, and mTOR protein (Millipore, Burlington, MA, USA, Catalog No. 14-770) were added. It was transferred to a 384-well plate and incubated at room temperature for 30 min. The LANCE detection buffer was added, which contained EDTA and Eu-antiphos-4E-BP1 (Thr37/46) antibody (PE, catalog number TRF0216-M). The plate was balanced at ambient temperature for 1 h, and the signal was detected via PerkinElmer Envision plate reader.
# PI3K = system: PI3K; parameters: method as in PMID 21388141; settings: read-out: enzyme inhibition; cited from earlier work
# MCF-7 cells = test: CCK-8 cell viability assay, MCF-7; type: cell-based; settings: Homo sapiens, MCF7, 72 h, mean (n = 3)
# Description: as §1
# PI3Kα = target: T2, PI3Kα (Homo sapiens, UniProt P42336); test: ADP-Glo kinase assay, PI3Kα enzyme inhibition; type: biochemical; settings: for inhibition at 0.001 µM: at 1 nM
# T2 construct: purchased SignalChem P27-122DH
# Description: The enzymatic inhibitory assays of all target compounds against PI3Kα were performed with the ADP-Glo assay (Promega, Madison, WI, USA, catalog No. V9102/3). Briefly, compounds were continuously diluted to a certain concentration. […] The mixture was added to a 96-well plate and incubated in a dark place at ambient temperature for 40 min. Then, the kinase reaction was stopped by adding of ADP-Glo reagent and the plate was incubated again at ambient temperature for another 40 min. The kinase detection reagent was added and the signal was collected via PerkinElmer Envision plate reader (PE, Boston, MA, USA).
# PI3Kγ = target: PI3Kγ; parameters: method as in PMID 30582807; settings: cited from earlier work
# [2] = system: phosphorylation of AKT in HCT-116 cells; test: Western blot of AKT phosphorylation; type: cell-based; settings: 24 h
# Description: HCT-116 cells were cultured in 100 mm culture dish to 70~80%, and treated with compound 22c at a specified concentration for 24 h. Then, the cells were scraped off with cell scraper, collected into a precooled 1.5 mL centrifuge tube, and lysed with RIPA buffer (Cwbio, Taizhou, China) containing PMSF (1 mM), NaF (1 mM), Na3VO4 (1 mM). The cells were lysed at 4 °C for 30 min, and the concentration of protein was determined by the BCA assay kit (Meilunbio, Dalian, China). Then the protein samples (40 μg) were used to conduct SDS-PAGE electrophoresis (Electrophoresis equipment: BIO-RAD, Hercules, CA, USA; Prefabricated-gel: ACE, Shanghai, China). After electrophoresis, the protein was transferred to PVDF membranes ([…], Millipore, USA). It was sealed with 5% non-fat milk for 1.5 h, washed with TBST for 4 times, and incubated with primary antibody at 4 °C overnight. Then, membranes were recovered to room temperature, washed with TBST for 4 times and incubated with secondary antibody (Huabio, Hangzhou, China) at room temperature for 1.5 h. After incubating, the membranes were washed with TBST for 4 times, visualized with an Amersham Imager 680 (GE, Windsor, CT, USA) through the enhanced ECL detection kit (Meilunbio, Dalian, China). […]
# HCT-116 cells [3] = test: Flow cytometry analysis of apoptosis via Annexin V-FITC/PI staining; type: cell-based; settings: 24 h
# Description: (§2) Hoechst 33342/PI staining was used to detect cell survival and apoptosis, and flow cytometry (FACS Verse, BD, Piscataway, NJ, USA) was used to measure cell cycle and survival. Briefly, HCT-116 cells were seeded in 6-well plates and cultured with 22c at different concentrations for 24 h. As for the Hoechst 33342/PI staining assay, staining buffer with Hoechst 33342/PI was added into each plate and incubated at 4 °C for 30 min. After washing with PBS, the stained cells were observed by fluorescence microscope (IX73, Olympus, Tokyo, Japan). As for detection of cell apoptosis by flow cytometry, cells were stained with Annexin V-FITC/PI. As for cell cycle assay, the cells were fixed with 70% ethanol at 4 °C overnight, and stained with PI/RNase solution for 30 min at 37 °C. All assays were measured by flow cytometry and analyzed by Flowjo 7.6.
# HCT-116 cells [4] = test: Hoechst 33342/PI staining of survival and apoptosis; type: cell-based; settings: 24 h
# Description: as §2
# HCT-116 cells [5] = test: Flow cytometry analysis of cell cycle via PI staining; type: cell-based; settings: 24 h, dose-dependent
# Description: as §2
# T2 sequence (P42336 whole entry): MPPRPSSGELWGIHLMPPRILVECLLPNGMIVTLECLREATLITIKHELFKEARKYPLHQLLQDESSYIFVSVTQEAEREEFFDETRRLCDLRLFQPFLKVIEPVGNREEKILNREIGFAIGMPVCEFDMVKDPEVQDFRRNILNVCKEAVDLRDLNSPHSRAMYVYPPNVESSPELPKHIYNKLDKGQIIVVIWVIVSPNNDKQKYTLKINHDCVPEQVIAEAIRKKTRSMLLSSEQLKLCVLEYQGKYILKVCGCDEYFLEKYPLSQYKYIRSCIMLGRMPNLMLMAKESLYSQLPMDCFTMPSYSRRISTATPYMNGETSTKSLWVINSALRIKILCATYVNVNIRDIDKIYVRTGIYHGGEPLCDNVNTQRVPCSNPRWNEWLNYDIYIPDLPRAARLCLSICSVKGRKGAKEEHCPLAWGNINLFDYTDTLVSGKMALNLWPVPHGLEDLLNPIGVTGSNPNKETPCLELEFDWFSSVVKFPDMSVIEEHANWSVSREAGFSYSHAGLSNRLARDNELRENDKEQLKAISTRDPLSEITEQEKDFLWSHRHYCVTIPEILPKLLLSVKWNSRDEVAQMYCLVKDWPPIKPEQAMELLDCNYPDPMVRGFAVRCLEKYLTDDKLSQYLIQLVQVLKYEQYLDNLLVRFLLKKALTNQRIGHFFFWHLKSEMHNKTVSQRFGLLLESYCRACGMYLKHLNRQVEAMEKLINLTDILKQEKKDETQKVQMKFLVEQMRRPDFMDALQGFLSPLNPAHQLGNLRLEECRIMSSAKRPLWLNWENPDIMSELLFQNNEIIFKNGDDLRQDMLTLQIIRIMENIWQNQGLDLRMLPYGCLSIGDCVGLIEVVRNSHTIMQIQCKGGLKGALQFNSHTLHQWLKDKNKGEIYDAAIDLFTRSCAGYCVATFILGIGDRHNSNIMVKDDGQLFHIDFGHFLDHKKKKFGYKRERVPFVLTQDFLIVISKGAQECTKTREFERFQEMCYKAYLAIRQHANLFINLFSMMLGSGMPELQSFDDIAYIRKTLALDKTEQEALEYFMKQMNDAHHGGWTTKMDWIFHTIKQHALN
# T2 sequence (P27986 whole entry partner): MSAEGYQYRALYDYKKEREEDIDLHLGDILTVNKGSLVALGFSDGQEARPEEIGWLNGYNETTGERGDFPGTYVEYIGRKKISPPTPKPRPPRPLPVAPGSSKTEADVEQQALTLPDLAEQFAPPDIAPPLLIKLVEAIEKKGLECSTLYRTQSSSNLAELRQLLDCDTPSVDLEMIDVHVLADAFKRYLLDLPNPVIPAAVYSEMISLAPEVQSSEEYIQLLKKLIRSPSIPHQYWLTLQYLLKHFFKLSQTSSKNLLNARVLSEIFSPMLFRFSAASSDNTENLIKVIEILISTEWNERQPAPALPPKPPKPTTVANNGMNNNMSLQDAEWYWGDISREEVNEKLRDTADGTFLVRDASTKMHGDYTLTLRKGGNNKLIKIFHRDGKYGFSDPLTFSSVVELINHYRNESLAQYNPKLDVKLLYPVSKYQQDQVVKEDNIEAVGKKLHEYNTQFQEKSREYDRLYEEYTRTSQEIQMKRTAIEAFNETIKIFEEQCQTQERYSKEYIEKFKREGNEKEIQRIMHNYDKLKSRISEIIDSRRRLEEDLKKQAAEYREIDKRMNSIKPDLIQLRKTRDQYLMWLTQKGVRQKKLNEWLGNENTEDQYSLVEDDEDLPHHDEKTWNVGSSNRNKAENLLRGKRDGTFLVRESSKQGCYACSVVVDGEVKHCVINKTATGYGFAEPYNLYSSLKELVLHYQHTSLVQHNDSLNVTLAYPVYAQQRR
# T1 sequence (P42345 1362-2549 limits assumed): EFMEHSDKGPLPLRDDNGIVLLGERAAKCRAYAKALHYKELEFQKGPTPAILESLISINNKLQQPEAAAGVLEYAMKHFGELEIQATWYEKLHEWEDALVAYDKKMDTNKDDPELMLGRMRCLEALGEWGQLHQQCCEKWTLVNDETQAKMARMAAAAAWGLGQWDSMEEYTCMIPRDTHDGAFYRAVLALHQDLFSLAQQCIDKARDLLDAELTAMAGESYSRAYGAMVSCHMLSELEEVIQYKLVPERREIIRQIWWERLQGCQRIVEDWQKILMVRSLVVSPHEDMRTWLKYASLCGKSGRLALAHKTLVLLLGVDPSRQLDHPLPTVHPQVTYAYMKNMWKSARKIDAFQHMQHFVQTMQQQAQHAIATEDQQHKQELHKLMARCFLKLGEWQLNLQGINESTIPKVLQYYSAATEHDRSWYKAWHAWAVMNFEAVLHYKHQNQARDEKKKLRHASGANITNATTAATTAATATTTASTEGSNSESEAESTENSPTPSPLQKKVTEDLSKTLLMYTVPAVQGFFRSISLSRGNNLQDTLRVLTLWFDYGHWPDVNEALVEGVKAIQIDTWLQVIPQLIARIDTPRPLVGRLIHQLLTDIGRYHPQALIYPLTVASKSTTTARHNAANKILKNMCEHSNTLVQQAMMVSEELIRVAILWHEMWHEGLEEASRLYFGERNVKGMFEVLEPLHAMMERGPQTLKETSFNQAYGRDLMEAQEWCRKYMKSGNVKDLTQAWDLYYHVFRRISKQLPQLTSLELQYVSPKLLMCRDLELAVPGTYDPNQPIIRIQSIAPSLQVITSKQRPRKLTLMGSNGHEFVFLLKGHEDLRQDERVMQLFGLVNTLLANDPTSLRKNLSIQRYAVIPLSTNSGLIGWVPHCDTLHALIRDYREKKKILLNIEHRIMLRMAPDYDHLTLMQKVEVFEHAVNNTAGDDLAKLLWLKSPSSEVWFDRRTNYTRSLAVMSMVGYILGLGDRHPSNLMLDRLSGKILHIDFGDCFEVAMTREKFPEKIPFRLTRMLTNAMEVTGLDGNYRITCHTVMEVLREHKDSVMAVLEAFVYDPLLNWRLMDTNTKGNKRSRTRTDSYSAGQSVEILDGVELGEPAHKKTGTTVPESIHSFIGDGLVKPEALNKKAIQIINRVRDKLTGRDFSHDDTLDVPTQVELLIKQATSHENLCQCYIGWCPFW
structure (smiles),measurement,setting,value
"CCOC(=O)c1cnc2ccc(-c3cncc(NS(=O)(=O)c4ccccc4)c3)cn12 [HS-173, reference compound]",IC50,"HCT-116 cells [1]; Table 1, 72 h",0.19 ± 0.05 µM
same,IC50,mTOR,110 nM
same,IC50,MCF-7 cells; Table 1,1.76 ± 0.44 µM
"COc1ncc(-c2ccc3nccc(-c4ccnnc4)c3c2)cc1NS(=O)(=O)c1ccc(F)cc1F [Omipalisib, reference compound]",IC50,"HCT-116 cells [1]; Table 1, 72 h",0.02 ± 0.01 µM
same,inhibition at 0.001 µM,PI3Kα; Table 1,89%
same,IC50,MCF-7 cells; Table 1,> 4 µM
"COc1ncc(-c2ccc3nccc(-c4ncc(C(=O)NC(C)C)o4)c3c2)cc1NS(=O)(=O)c1ccc(F)cc1F [22c, 2-(6-(5-((2,4-difluorophenyl)sulfonamido)-6-methoxypyridin-3-yl)quinolin-4-yl)-N-isopropyloxazole-5-carboxamide]",phosphorylation of AKT (Western blot),[2],could block the phosphorylation process of AKT at low concentrations
same,IC50,"HCT-116 cells [1]; Table 3, 72 h",0.02 ± 0.01 µM
same,Q1 of Annexin V-FITC/PI plot,HCT-116 cells [3]; 0.25 μM,1.95
same,Q2 of Annexin V-FITC/PI plot,HCT-116 cells [3]; 0.25 μM,14.1
same,Q3 of Annexin V-FITC/PI plot,HCT-116 cells [3]; 0.25 μM,0.080
same,Q4 of Annexin V-FITC/PI plot,HCT-116 cells [3]; 0.25 μM,83.9
same,Q1 of Annexin V-FITC/PI plot,HCT-116 cells [3]; 1 μM,3.13
same,Q2 of Annexin V-FITC/PI plot,HCT-116 cells [3]; 1 μM,38.0
same,Q3 of Annexin V-FITC/PI plot,HCT-116 cells [3]; 1 μM,0.14
same,Q4 of Annexin V-FITC/PI plot,HCT-116 cells [3]; 1 μM,58.7
same,Q1 of Annexin V-FITC/PI plot,HCT-116 cells [3]; 4 μM,2.69
same,Q2 of Annexin V-FITC/PI plot,HCT-116 cells [3]; 4 μM,58.3
same,Q3 of Annexin V-FITC/PI plot,HCT-116 cells [3]; 4 μM,0.17
same,Q4 of Annexin V-FITC/PI plot,HCT-116 cells [3]; 4 μM,38.9
same,"apoptosis (flow cytometry), in words",HCT-116 cells [3]; dose-dependent,induce apoptosis
same,IC50,mTOR,23 nM
same,apoptosis and necrosis (Hoechst33342/PI staining),HCT-116 cells [4],could significantly affect apoptosis and necrosis of HCT-116 cells
same,cell cycle arrest,HCT-116 cells [5],inhibited the cell cycle in G0/G1 phase
same,inhibition at 0.001 µM,PI3Kα; Table 3,82%
same,IC50,PI3Kα; mean (n = 2),0.22 nM
same,IC50,MCF-7 cells; Table 3,0.13 ± 0.03 µM
